This is an account of results in US20170173060A1, “ACTIVATION OF THE ENDOGENOUS ILEAL BRAKE HORMONE PATHWAY FOR ORGAN REGENERATION AND RELATED COMPOSITIONS, METHODS OF TREATMENT, DIAGNOSTICS, AND REGULATORY SYSTEMS” (VOLANT HOLDINGS GMBH, priority 2014, published 2017).

One data set deals with MIN-6 cells. The following applies: cited from earlier work.
The nature of data set [1]: Case of patient (T2D, chronic hepatitis B, steatosis) on Januvia and Brake. The data set is classed as in vivo, human. The following applies: 6 months after stopping Brake, sitagliptin continued. As to the method: Both their Triglycerides and hepatic enzymes were 2-3× elevated. […] Their diabetic control deteriorated on this regimen, to the point where they were considered a candidate for insulin. As an alternative, patient was started on Januvia (sitagliptin) 100 mg per day and 7 pills of Brake™. After 6 months treatment, their HBA1c became normal at 6.0, indicating pancreatic regeneration from the combination product. […] They lost 35 lbs. After 6 months, they stopped the Brake™ therapy but continued sitagliptin. By 6 months later they began to gain weight and their HBA1c rose above 6.0, whereupon they resumed taking Brake™ tablets with return of their HBA1c to normal once again. This case taught the inventors that Brake™ associated organ regeneration is a long lived effect of the combination but not a permanent effect. In fact it is often notable that RYGB patients lose the effects of the surgical procedure after two or more years, and it appears that resumption of dietary indiscretion leads to recrudescence of the metabolic syndrome. Patients are thus advised to be vigilant, particularly if weight gain resumes.

Data set [2] concerns patients with initial abnormal values. As to the kind of experiment: Rate of change of weight, HBA1c, HDL, TG and AST in RYGB, Brake, combination and control patients (FIGS. 18-22). The data set is classed as in vivo, human.
Another data set concerns patients with RA. The following applies: human, in vivo; cited from earlier work.
The test system of the next data set is C57BL/6J mice. The following applies: 1 mg/kg body weight, cited from earlier work.
For data set [3], the system named is human abdominal subcutaneous (AbdSc) adipocytes. The following applies: cited from earlier work.
The conditions of data set [4]: 1500 mg taken in three doses of 500 mg; cited from earlier work.
In data set [5] the test system is hypercholesterolemic New Zealand White rabbits. The following applies: cited from earlier work.
The test system of data set [6] is patients with metabolic syndrome. The data set is described as follows: FS index of metabolic syndrome tracked over time in patient groups (neural net model). The data set is classed as in vivo, human. The text has this:
The FS index (Fayad/Schentag) of MS (the relevant equation for which appears in attached FIG. 15) considers the following: Fasting Blood Glucose, Fasting Insulin, HBA1c, BMI, AST, Triglycerides, Glucose Supply-Demand (SD) index, and Proinsulin. Each parameter is mathematically arranged to increase as MS worsens, and weighted approximately equally in the prediction of MS progression and risk for organ damage.
The FS index was then applied to well-studied patient populations already in databases, using a neural net model and the equation set forth in FIG. 15 (and as above). The database included previously published 50 patients with T2D having CV events principally myocardial infarctions, and controls of a precisely matched group of T2D patients without these events (2, 3). […] For each study patient, we had complete access to all raw data, measured vital signs, culture results, and clinician assessments. […]
FS index values were calculated from serial laboratory and clinical data over timeframes ranging between 2 and 10 years. […]
The FS index was applied to well-studied patient populations already in our databases, using a neural net model. […] FS index values were calculated from serial laboratory and clinical data over timeframes ranging 2-10 years. […]

The test system of a further data set is people with stable COPD. The following applies: in vivo; cited from earlier work.
In data set [7] the test system is high-risk cardiovascular disease (CVD) patients. The following applies: cited from earlier work.

“Also recorded” adds a separate entry of the source.

Regarding `COc1cc(/C=C(\C#N)C(N)=O)cc(CSc2nc3ccccc3s2)c1O` [AG825], in the data set with MIN-6 cells, the “effect on BTC proliferative effect” value is recorded as “blocked”.

Turning to `N[C@@H](CC(=O)N1CCn2c(nnc2C(F)(F)F)C1)Cc1cc(F)c(F)cc1F` [sitagliptin], the HBA1c result in [1] was “above 6.0”.

Turning to `CC(C)c1c(C(=O)Nc2ccccc2)c(-c2ccccc2)c(-c2ccc(F)cc2)n1CC[C@@H](O)C[C@@H](O)CC(=O)O` [atorvastatin], the HDL change result in data set [2] (FIG. 20, control patients mostly atorvastatin 10 mg) is “essentially no change in HDL”. The “triglyceride (TG) changes” value in [2] (FIG. 21) is listed as “either stayed the same or had a minor drop in TG”. For the same compound, in data set [2] (FIG. 22), the “AST concentrations and rate of change” value is reported as “little effect on hepatic inflammation”.

Consider `CN(Cc1cnc2nc(N)nc(N)c2n1)c1ccc(C(=O)N[C@@H](CCC(=O)O)C(=O)O)cc1` [MTX, Methotrexate], for which the “risk of CVD events” value in the data set on patients with RA is on record as “associated with a reduced risk of CVD events”.

Take `CC(C)=CCC[C@](C)(O)[C@H]1CC[C@]2(C)[C@@H]1[C@H](O)C[C@@H]1[C@@]3(C)CC[C@H](O[C@@H]4O[C@H](CO)[C@@H](O)[C@H](O)[C@H]4O)C(C)(C)[C@@H]3CC[C@]12C` [GS-Rh2, ginsenoside Rh2]: the “glycemia and glucose tolerance” value in the data set on C57BL/6J mice (within 14 days post-PPx) was “improved glycemia and glucose tolerance”. The beta-cell proliferation entry in the data set on C57BL/6J mice was “increased beta-cell proliferation percentages”.

On to lipopolysaccharide [LPS], for which the “TLR-2 protein expression increase” value in [3] is given as “twofold”. For the same compound, in data set [3] (control 1.0+/-0.83), the TNF-alpha secretion is 32.8 ± 6.23 pg/mL. In addition, the IL-6 secretion in data set [3] (control 2.7+/-0.5) was 4.8 ± 0.3 ng/mL.

Regarding `COc1ccc2cc3[n+](cc2c1OC)CCc1cc2c(cc1-3)OCO2` [Berberine], in data set [4], the “anti-diabetic effects (biomarkers of type 2 diabetes)” value is recorded as “appear to be equal to those of 1500 mg Metformin or 4 mg Glibenclamide”.

`CCCCCCCCCCC(C)(C)C(=O)Nc1c(OC)cc(OC)cc1OC` [CI-976, 2,2-dimethyl-N-(2,4,6-trimethoxyphenyl) dodecanamide]: in data set [5] (rabbit, in vivo), the “decrease of cholesteryl ester enrichment in thoracic aorta” value was 46% and the “effect on plasma triglycerides” value is on record as “no effect”. For the same compound, in [5] (relative to the initiation of intervention, dose that did not lower plasma cholesterol), the “reduction of foam cell area in iliac-femoral lesion” value is given as 27-29%.

Regarding `CN(C)C(=N)N=C(N)N` [metformin], the “parameters that would indicate regeneration” value in [6] (control patients, even at dosages of 2.0 grams daily) is “no significant change”. The “pattern of FS index over time” value in data set [6] (metformin alone, 61 patients (FIG. 5)) is recorded as “rises; also recorded: flat or slowly rising”. Also, the weight change result in data set [2] (FIG. 18) was “either stayed the same or lost a few pounds”. Further, the HBA1c change result in data set [2] (FIG. 19) is recorded as “either stayed the same or had a minor drop in HBA1c”. In addition, in [2] (FIGS. 18-21 control patients), the “effect on metabolic syndrome biomarkers when given alone” value is “little effect”.

As to `O=C(Nc1c(Cl)cncc1Cl)c1ccc(OC(F)F)c(OCC2CC2)c1` [Roflumilast], the “body weight during the trial period” value in the data set with people with stable COPD is given as “weight loss”.

Take `COc1cc2ncnc(Nc3cccc(Cl)c3)c2cc1OC` [AG1478]: the “effect on BTC proliferative effect” value with MIN-6 cells is “blocked”.

Take `COc1cc(OC)c2c(=O)[nH]c(-c3cc(C)c(OCCO)c(C)c3)nc2c1` [RVX-208]: the “change of ratio of necrotic core to dense calcium (NC/DC)” value in data set [7] (VH-IVUS, treated patients n=61) is recorded as −7.5%. Also, the “incidence of MACE lower vs. placebo” value in [7] (patients with hsCRP >2.0 mg/dL) was 63%.
